Source: patent US20250313635A1, “ANTI-INTEGRIN ANTIBODIES AND USES THEREOF” (Merck Sharp & Dohme LLC, priority 2022, published 2025)

Assays:
[1] = tested on: bleomycin-induced lung fibrosis mouse model; assay: Mouse bleomycin lung fibrosis model; assay type: in vivo; settings: MK-0429 200 mpk osmotic minipump, Nintedanib 60 mpk po qd
Experimental: Mouse bleomycin lungfibrosis models. Adult male C57BL/6 mice (Taconic, Rensselaer, NY) were housed in a temperature and humidity-controlled facility with a 12-hour light: 12-hour dark cycle. Animals had ad libitum access to food (Purina Rodent Chow 5053, LabDiet, St. Louis, MO) and water. All procedures utilizing experimental animals were conducted in accordance with the Guide for the Care and Use of Laboratory Animals, and experimental procedures were reviewed and approved by the Institutional Animal Care and Use Committee at MRL, Kenilworth, NJ.
For osmotic minipump implantation, trifluoroacetate (TFA) salt of MK-0429 was formulated in 50% dimethylsulfoxide (DMSO)/50% H2O at a concentration of 416 mg/mL. MK-0429 or vehicle solution were filled in minipumps (Alzet, #1007D, flow rate 0.5 μL/hour). Minipumps were placed in mice subcutaneously in a pocket on the back between the shoulder blades. A small incision was made and a subcutaneous pocket formed by blunt dissection. A sterile minipump was inserted into the subcutaneous pocket. The incision was closed with staples or non-absorbable suture or absorbable (subcuticular) suture. The minipumps were used for continuous drug delivery for two weeks.
(§1) Mice at 12˜13 weeks of age were randomized to five groups: saline, bleomycin instillation with vehicle (osmotic minipump), bleomycin instillation with MK-0429 treatment, bleomycin instillation with vehicle oral treatment, and bleomycin instillation with Nintedanib treatment. All mice were anaesthetized with isoflurane. Bleomycin was dosed by intratracheal (i.t) instillation in a volume of 50 μL, at a dose of 1 unit/kg body weight. After instillation, mice were kept in a heads-up position for 2-5 minutes before putting into cages. MK-0429 (200 mg/kg) was administered by Osmotic pump from day 5 to day 14 and Nintedanib (60 mg/kg) was administered, p.o., q.d., for 14 days. Vehicle was dosed orally at 10 am daily from the day 5 to the end of the studies and dosing volume was 10 mL/kg. For plasma PK analysis, an aliquot of 50 μL plasma was spiked into a 96-well plate, and 200 μL of acetonitrile containing internal standard were added for protein precipitation. The mixture was vortexed, centrifuged at 4000 rpm for 20 minutes. Then 50 μL of supernatant fraction was mixed with 200 μL H2O and the final solution were injected for LC-MS/MS analysis. The methods for quantitative analysis were developed on UPLC (Waters) chromatographic system equipped with an API4000 QTrap™ mass spectrometer (Applied Biosystems, Concord, Ontario, Canada). Analyst 1.5 software packages (Applied Biosystems) were used to control the LC-MS/MS system and data acquisition and processing.
Histopathology analysis. Upon completion of the study, animals were euthanized and tissues were collected for histological assessment. Lung tissues were perfused with 10% formalin, fixed for 24 hours, and then paraffin embedded. Tissue sections were stained with hematoxylin & eosin (H&E) and Masson's trichrome, subsequently evaluated under light microscope. The severity of histopathologic changes and fibrosis in the lung were graded as described previously by pathologists (Ashcroft et al., J. Clin. Pathol. 41, 467-470 (1988); Hubner et al., Biotechniques 44(507-511), 514-607 (2008)). Following deparaffinization and rehydration, each lung tissue section was processed to identify αSMA deposition by immunohistochemistry. The primary antibodies used were αSMA antibody from Sigma. The Aperio ScanScope™ XT Slide Scanner (Aperio Technologies) system was used to capture whole slide digital images with a 20×objective. Digital images were managed using Aperio Spectrum™. The positive stains were identified and quantified using a macro created from a color deconvolution algorithm (Aperio Technologies). Statistical analysis was performed by using One-way ANOVA followed by Tukey's test.

[2] = Plasma PK analysis in bleomycin model (LC-MS/MS); assay type: in vivo; settings: mouse, two hours after the last dose at end of study; MK-0429 200 mpk osmotic minipump, Nintedanib 60 mpk po qd
Experimental: as §1, with “Analyst 1.5 software packages (Applied Biosystems) were used to control the LC-MS/MS system and data acquisition and processing.” left out

[3] = tested on: Normal human lung fibroblasts; assay: αSMA imaging, TGFβ-induced αSMA expression; assay type: cell-based; settings: TGFβ 5 ng/mL, pre-treated 30 minutes, MK-0429 (10 µM) or SB-525334 (10 μM), 48 hours
Experimental: αSMA imaging. Primary cells (passage 3-5) were grown on Cell carrier Ultra, collagen Type 1 coated 96-well plates (Perkin Elmer, #6055700) at a density of 25,000 cells/well. Once the cells adhere, they were starved in serum free media for 24 hours followed by addition of treatments, i.e., 5 ng/mL TGFβ (Biolegend #580702)±inhibitors. Cells were pre-treated with inhibitors for 30 minutes prior to the addition of TGFβ stimulation. 48 hours post treatment, the cells were fixed in 4% methanol free paraformaldehyde (ThermoFisher Scientific #28908) for 20 minutes at room temperature and incubated with anti-alpha smooth muscle Actin antibody (Abcam #ab7817) at 1:4000 overnight at 4° C. Following primary antibody incubation, cells were incubated with Goat anti-mouse secondary antibody (ThermoFisher Scientific #A32723) at 1:500 and Hoechst (ThermoFisher Scientific #62249) at 1:1000 for one hour at RT. The fixed and stained cells were images for immunofluorescence on Perkin Elmer's Opera Phenix high content Imager.

[4] = 14 days treatment, vs BLM-vehicle

| mean plasma concentration [2] | SMILES | body weight difference vs bleomycin group [1] | BALF TIMP-1 content [1, 4] | bleomycin-induced αSMA expression (IHC) [1, 4] | inflammation in the lung [1, 4] | modified Ashcroft score [1, 4] | αSMA intensity and the percentage of stimulated cells following TGFβ treatment [3] |
| --- | --- | --- | --- | --- | --- | --- | --- |
| 656+229 ng/mL | COC(=O)c1ccc2c(c1)NC(=O)/C2=C(\Nc1ccc(N(C)C(=O)CN2CCN(C)CC2)cc1)c1ccccc1 [Nintedanib, reference compound] | no significant body weight difference | significantly decreased | significantly decreased | decreased inflammation | significantly improved |  |
|  | Cc1cccc(-c2[nH]c(C(C)(C)C)nc2-c2ccc3nccnc3c2)n1 [SB-525334, reference compound] |  |  |  |  |  | significantly reduced |
